Measurements as given in patent US10206394B2, “Herbicidal compounds” (Syngenta Participations AG, priority 2014, dated 2019).
Like-named read-outs stand apart in the source and are kept apart here.

Legend:
Assay in all cases: Glasshouse assay for herbicidal activity (pre- and post-emergence), percentage phytotoxicity
Assay type in all cases: in vivo
[1] = system: Echinochloa crus-galli (ECHCG); conditions: Echinochloa crus-galli
Outline: (§1)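 Potted test plants in standard soil received the compound pre-emergence (day 1) or post-emergence (about day 12). Evaluation: visual damage score from 0% (none) to 100% (total), 15 days after application post-emergence, 20 days pre-emergence.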

Lolium perenne (LOLPE) = conditions: Lolium perenne
Outline: as §1

Avena fatua (AVEFA) = conditions: Avena fatua
Outline: as §1

[2] = system: Alopecurus myosuroides (ALOMY); conditions: Alopecurus myosuroides
Outline: as §1

[3] = post-emergence, 360 h, 250 g/ha, post-emergence, 15 DAA, visual assessment (100%=total damage, 0%=no damage), read-out: Post-emergence herbicidal activity (percentage phytotoxicity) ECHCG POST
[4] = pre-emergence, 480 h, 250 g/ha, pre-emergence, 20 DAA, visual assessment (100%=total damage, 0%=no damage), read-out: Pre-emergence herbicidal activity (percentage phytotoxicity) ECHCG PRE
[5] = post-emergence, 360 h, 250 g/ha, post-emergence, 15 DAA, visual assessment (100%=total damage, 0%=no damage), read-out: Post-emergence herbicidal activity (percentage phytotoxicity) LOLPE POST
[6] = pre-emergence, 480 h, 250 g/ha, pre-emergence, 20 DAA, visual assessment (100%=total damage, 0%=no damage), read-out: Pre-emergence herbicidal activity (percentage phytotoxicity) LOLPE PRE
[7] = post-emergence, 360 h, 250 g/ha, post-emergence, 15 DAA, visual assessment (100%=total damage, 0%=no damage), read-out: Post-emergence herbicidal activity (percentage phytotoxicity) AVEFA POST
[8] = pre-emergence, 480 h, 250 g/ha, pre-emergence, 20 DAA, visual assessment (100%=total damage, 0%=no damage), read-out: Pre-emergence herbicidal activity (percentage phytotoxicity) AVEFA PRE
[9] = post-emergence, 360 h, 250 g/ha, post-emergence, 15 DAA, visual assessment (100%=total damage, 0%=no damage), read-out: Post-emergence herbicidal activity (percentage phytotoxicity) ALOMY POST
[10] = pre-emergence, 480 h, 250 g/ha, pre-emergence, 20 DAA, visual assessment (100%=total damage, 0%=no damage), read-out: Pre-emergence herbicidal activity (percentage phytotoxicity) ALOMY PRE
[11] = post-emergence, 360 h, Rate 250 g/ha, post-emergence, assessed visually 15 DAA, 100%=total damage, 0%=no damage, read-out: Post-emergence herbicidal activity (percentage phytotoxicity) ECHCG POST
[12] = pre-emergence, 480 h, Rate 250 g/ha, pre-emergence, assessed visually 20 DAA, 100%=total damage, 0%=no damage, read-out: Pre-emergence herbicidal activity (percentage phytotoxicity) ECHCG PRE
[13] = post-emergence, 360 h, Rate 250 g/ha, post-emergence, assessed visually 15 DAA, 100%=total damage, 0%=no damage, read-out: Post-emergence herbicidal activity (percentage phytotoxicity) LOLPE POST
[14] = pre-emergence, 480 h, Rate 250 g/ha, pre-emergence, assessed visually 20 DAA, 100%=total damage, 0%=no damage, read-out: Pre-emergence herbicidal activity (percentage phytotoxicity) LOLPE PRE
[15] = post-emergence, 360 h, Rate 250 g/ha, post-emergence, assessed visually 15 DAA, 100%=total damage, 0%=no damage, read-out: Post-emergence herbicidal activity (percentage phytotoxicity) AVEFA POST
[16] = pre-emergence, 480 h, Rate 250 g/ha, pre-emergence, assessed visually 20 DAA, 100%=total damage, 0%=no damage, read-out: Pre-emergence herbicidal activity (percentage phytotoxicity) AVEFA PRE
[17] = post-emergence, 360 h, Rate 250 g/ha, post-emergence, assessed visually 15 DAA, 100%=total damage, 0%=no damage, read-out: Post-emergence herbicidal activity (percentage phytotoxicity) ALOMY POST
[18] = pre-emergence, 480 h, Rate 250 g/ha, pre-emergence, assessed visually 20 DAA, 100%=total damage, 0%=no damage, read-out: Pre-emergence herbicidal activity (percentage phytotoxicity) ALOMY PRE
[19] = post-emergence, 360 h, POST-emergence, rate 250 g/ha, visual score 15 DAA (100%=total damage, 0%=no damage), read-out: Post-emergence herbicidal activity (percentage phytotoxicity) ECHCG POST
[20] = pre-emergence, 480 h, PRE-emergence, rate 250 g/ha, visual score 20 DAA (100%=total damage, 0%=no damage), read-out: Pre-emergence herbicidal activity (percentage phytotoxicity) ECHCG PRE
[21] = post-emergence, 360 h, POST-emergence, rate 250 g/ha, visual score 15 DAA (100%=total damage, 0%=no damage), read-out: Post-emergence herbicidal activity (percentage phytotoxicity) LOLPE POST
[22] = pre-emergence, 480 h, PRE-emergence, rate 250 g/ha, visual score 20 DAA (100%=total damage, 0%=no damage), read-out: Pre-emergence herbicidal activity (percentage phytotoxicity) LOLPE PRE
[23] = post-emergence, 360 h, POST-emergence, rate 250 g/ha, visual score 15 DAA (100%=total damage, 0%=no damage), read-out: Post-emergence herbicidal activity (percentage phytotoxicity) AVEFA POST
[24] = pre-emergence, 480 h, PRE-emergence, rate 250 g/ha, visual score 20 DAA (100%=total damage, 0%=no damage), read-out: Pre-emergence herbicidal activity (percentage phytotoxicity) AVEFA PRE
[25] = post-emergence, 360 h, POST-emergence, rate 250 g/ha, visual score 15 DAA (100%=total damage, 0%=no damage), read-out: Post-emergence herbicidal activity (percentage phytotoxicity) ALOMY POST
[26] = pre-emergence, 480 h, PRE-emergence, rate 250 g/ha, visual score 20 DAA (100%=total damage, 0%=no damage), read-out: Pre-emergence herbicidal activity (percentage phytotoxicity) ALOMY PRE

Row | SMILES | pest or weed control at 250 g/ha [1, 3] [%] | pest or weed control at 250 g/ha [1, 4] [%] | pest or weed control at 250 g/ha (Lolium perenne (LOLPE); [5]) [%] | pest or weed control at 250 g/ha (Lolium perenne (LOLPE); [6]) [%] | pest or weed control at 250 g/ha (Avena fatua (AVEFA); [7]) [%] | pest or weed control at 250 g/ha (Avena fatua (AVEFA); [8]) [%] | pest or weed control at 250 g/ha [2, 9] [%] | pest or weed control at 250 g/ha [2, 10] [%] | further results
1 | C#CC(C)(C)NC(=O)CC1CC(=O)C(c2c(C)cc(-c3ncc(Cl)cc3F)cc2C)C1=O (stereo not shown) [Compound B126] | 100 | 100 | 100 | 100 | 100 | 90 | 100 | 100 | –
2 | Cc1cc(C)c(C2C(=O)CC(CC(=O)NC(C)c3ccc(F)cc3)C2=O)c(C)c1 (stereo not shown) [Compound A93] | – | – | – | – | – | – | – | – | pest or weed control at 250 g/ha [1, 11]: 70%; pest or weed control at 250 g/ha [1, 12]: 60%; pest or weed control at 250 g/ha (Lolium perenne (LOLPE); [13]): 80%; pest or weed control at 250 g/ha (Lolium perenne (LOLPE); [14]): 90%; pest or weed control at 250 g/ha (Avena fatua (AVEFA); [15]): 40%; pest or weed control at 250 g/ha (Avena fatua (AVEFA); [16]): 20%; pest or weed control at 250 g/ha [2, 17]: 100%; pest or weed control at 250 g/ha [2, 18]: 90%
3 | Cc1cc(-c2ncc(F)cn2)cc(C)c1C1C(=O)CC(CC(=O)NC/C=C/Cl)C1=O (stereo not shown) [Compound B302] | – | – | – | – | – | – | – | – | pest or weed control at 250 g/ha [1, 19]: 100%; pest or weed control at 250 g/ha [1, 20]: 100%; pest or weed control at 250 g/ha (Lolium perenne (LOLPE); [21]): 100%; pest or weed control at 250 g/ha (Lolium perenne (LOLPE); [22]): 100%; pest or weed control at 250 g/ha (Avena fatua (AVEFA); [23]): 100%; pest or weed control at 250 g/ha (Avena fatua (AVEFA); [24]): 100%; pest or weed control at 250 g/ha [2, 25]: 100%; pest or weed control at 250 g/ha [2, 26]: 100%
4 | CCNC(=O)CC1CC(=O)C(c2c(C)cc(-c3ncc(C#N)cn3)cc2C)C1=O (stereo not shown) [Compound B286] | – | – | – | – | – | – | – | – | pest or weed control at 250 g/ha [1, 19]: 100%; pest or weed control at 250 g/ha [1, 20]: 100%; pest or weed control at 250 g/ha (Lolium perenne (LOLPE); [21]): 100%; pest or weed control at 250 g/ha (Lolium perenne (LOLPE); [22]): 90%; pest or weed control at 250 g/ha (Avena fatua (AVEFA); [23]): 100%; pest or weed control at 250 g/ha (Avena fatua (AVEFA); [24]): 90%; pest or weed control at 250 g/ha [2, 25]: 100%; pest or weed control at 250 g/ha [2, 26]: 100%
5 | Cc1cc(-c2ncc(F)cn2)cc(C)c1C1C(=O)CC(CC(N)=O)C1=O (stereo not shown) [Compound B107] | 80 | 60 | 80 | 20 | 90 | 10 | 80 | 60 | –
6 | Cc1cc(C)c(C2C(=O)CC(CC(=O)NC/C=C/Cl)C2=O)c(C)c1 (stereo not shown) [Compound B46] | 90 | 90 | 90 | 100 | 90 | 60 | 90 | 90 | –
7 | Cc1cc(-c2ncc(F)cc2F)cc(C)c1C1C(=O)CC(CC(=O)NCc2ccc(C#N)cc2)C1=O (stereo not shown) [Compound B199] | – | – | – | – | – | – | – | – | pest or weed control at 250 g/ha [1, 19]: 100%; pest or weed control at 250 g/ha [1, 20]: 50%; pest or weed control at 250 g/ha (Lolium perenne (LOLPE); [21]): 90%; pest or weed control at 250 g/ha (Lolium perenne (LOLPE); [22]): 70%; pest or weed control at 250 g/ha (Avena fatua (AVEFA); [23]): 100%; pest or weed control at 250 g/ha (Avena fatua (AVEFA); [24]): 60%; pest or weed control at 250 g/ha [2, 25]: 100%; pest or weed control at 250 g/ha [2, 26]: 80%
8 | Cc1cc(-n2ncc(Cl)c2C)cc(C)c1C1C(=O)CC(CC(=O)NC(C)(C)C)C1=O (stereo not shown) [Compound B104] | 70 | 20 | 70 | 10 | 80 | 10 | 80 | 40 | –
9 | Cc1cc(-c2ncc(F)cn2)cc(C)c1C1C(=O)CC(CC(=O)N(C)C)C1=O (stereo not shown) [Compound B279] | – | – | – | – | – | – | – | – | pest or weed control at 250 g/ha [1, 19]: 100%; pest or weed control at 250 g/ha [1, 20]: 100%; pest or weed control at 250 g/ha (Lolium perenne (LOLPE); [21]): 100%; pest or weed control at 250 g/ha (Lolium perenne (LOLPE); [22]): 100%; pest or weed control at 250 g/ha (Avena fatua (AVEFA); [23]): 100%; pest or weed control at 250 g/ha (Avena fatua (AVEFA); [24]): 100%; pest or weed control at 250 g/ha [2, 25]: 100%; pest or weed control at 250 g/ha [2, 26]: 100%
10 | Cc1cc(-c2ncc(Cl)cn2)cc(C)c1C1C(=O)CC(CC(=O)NC(C)(C)C)C1=O (stereo not shown) [Compound A40] | – | – | – | – | – | – | – | – | pest or weed control at 250 g/ha [1, 11]: 100%; pest or weed control at 250 g/ha [1, 12]: 100%; pest or weed control at 250 g/ha (Lolium perenne (LOLPE); [13]): 100%; pest or weed control at 250 g/ha (Lolium perenne (LOLPE); [14]): 100%; pest or weed control at 250 g/ha (Avena fatua (AVEFA); [15]): 100%; pest or weed control at 250 g/ha (Avena fatua (AVEFA); [16]): 90%; pest or weed control at 250 g/ha [2, 17]: 100%; pest or weed control at 250 g/ha [2, 18]: 100%
11 | Cc1cc(-c2ncc(Cl)cc2F)cc(C)c1C1C(=O)CC(CC(=O)NCc2ccc(OC(F)(F)F)cc2)C1=O (stereo not shown) [Compound A121] | – | – | – | – | – | – | – | – | pest or weed control at 250 g/ha [1, 11]: 100%; pest or weed control at 250 g/ha [1, 12]: 90%; pest or weed control at 250 g/ha (Lolium perenne (LOLPE); [13]): 100%; pest or weed control at 250 g/ha (Lolium perenne (LOLPE); [14]): 80%; pest or weed control at 250 g/ha (Avena fatua (AVEFA); [15]): 100%; pest or weed control at 250 g/ha (Avena fatua (AVEFA); [16]): 90%; pest or weed control at 250 g/ha [2, 17]: 100%; pest or weed control at 250 g/ha [2, 18]: 90%
12 | Cc1cc(C)c(C2C(=O)CC(CC(=O)NCc3cccc([N+](=O)[O-])c3)C2=O)c(C)c1 (stereo not shown) [Compound B20] | 90 | 90 | 40 | 70 | 80 | 90 | 70 | 80 | –
13 | CCCNC(=O)CC1CC(=O)C(c2c(C)cc(-c3ncc(Cl)cc3F)cc2C)C1=O (stereo not shown) [Compound B144] | 100 | 100 | 100 | 100 | 100 | 100 | 100 | 100 | –
14 | C=C(C)CNC(=O)CC1CC(=O)C(c2c(C)cccc2CC)C1=O (stereo not shown) [Compound B152] | 100 | 100 | 90 | 100 | 90 | 50 | 100 | 100 | –
